Data on 2 molecules can be found in patent US5413991A (Ajinomoto Co., Inc., priority 1991, dated 1995).

Experiment [1] deals with chitinase from baker's yeast (Saccharomyces cerevisiae) (Saccharomyces cerevisiae, UniProt P29029). To be noted: background statement; cited from earlier work.
For experiment [2], the system named is chitinase of pathogenic fungi such as Candida albicans. To be noted: background statement; cited from earlier work.
The subject of experiment [3] is chitinase from Candida albicans. Briefly: Assay for chitinase inhibitory activity, chitinase from Candida albicans (4MBTC fluorescence). Format: biochemical, Candida albicans ATCC 10231. To be noted: bis-Tris buffer pH 6.5, 37° C., 30 minutes, substrate 4MBTC. The method, then:
The chitinase from Candida albicans (C. albicans) was prepared by the following method. Firstly, a Sabouraud medium (pH 5.6) composed of 4 g of glucose, 1 g of polypeptone and 100 ml of water was prepared and placed in an Erlenmeyer flask of 500 ml volume. After sterilization at 120° C. for 20 minutes, one platinum loop of slant culture cells of C. albicans ATCC 10231 was inoculated into the medium, and then shake cultured at 37° C. for 2 days to obtain a primary seed mother liquor.
In a second procedure, 1 liter of Sabouraud medium having the same composition as above was prepared. Separately, 100 ml of the medium was added to each of ten 500 ml Erlenmeyer flasks, then the flasks and their contents were sterilized at 120° C. for 20 minutes. Thereafter, 2 ml of the primary seed mother liquor described above was added to each flask. The flask was shaken at 37° C. for 2 days to obtain a secondary seed mother liquor.
In a third procedure, 50 liters of Sabouraud medium having the same composition as described above was prepared and added to a culture tank of 100 liter volume. The tank and its contents were sterilized at 120° C. for 30 minutes. In the tank, 1 liter of the secondary seed mother liquor described above was added. Shake culturing was then conducted at 37° C. for 15 hours. At this stage, the stirring velocity was 140 rpm and the aerial rate was 10 l/min. The resulting culture broth was centrifuged by a sharpless centrifuging machine to recover the cells. The wet weight of the thus obtained cells was 250 g.
The cells were suspended in 800 ml of a buffer for cell homogenization (50 mM bis-Tris, 0.25M saccharose, 1 mM disodium ethylenediaminetetraacetate, pH 6.5). The suspension was twice passed through a Dyno-mill disintegrator (beads: MK-2GX, 0.25-0.5 mm) to disrupt the cells, and the supernatant was recovered. The supernatant was centrifuged at 9000 g for 30 minutes, then further super-centrifuged at 152,000 g for an hour. The supernatant thereof was recovered, and was concentrated to about one-fifth of the volume by ultrafiltration (Toyo Ultrafilter UP-20), having an excluding limiting molecular weight of 20,000. The concentrate was used as the crude chitinase solution from Candida albicans in the assay described in procedure (ii) below.
(§1) In a 20 ml vial bottle, 50 μl of the chitinase solution from Candida albicans prepared as described above,s 50 μl of 100 μg/ml aqueous 4-methylumbelliferyl β-D-N,N',N"-triacetyl-chitotrioside (hereinafterabbreviated as 4MBTC, SIGMA Co.), 75 μl of 50 mM bis-Tris buffer (pH 6.5) and 25 μl of 0.1N acetic acid were added and mixed. The reaction was carried out at 37° C. for 30 minutes. As a blank, the reaction was carried out in an identical manner, substituting 50 mM bis-Tris buffer (pH 6.5) for the enzyme solution. After the reaction, sufficient 0.5M glycine-sodium hydroxide buffer (pH 10.4) was added to make the total volume 5 ml. Then, the fluorescent intensity was determined with a fluorophotometer (manufactured by Hitachi Ltd., MPF-4). The excited wavelength was 350 nm, and the fluorescent wavelength was 400 nm. Chitinase activity was determined using the difference in the fluorescent intensity between the read-out data from the sample containing the enzyme and the blank read-out data.
(§2) In determining the inhibitory activity of AJI9463A, AJI9463B, AJI9463C, and the partially hydrolyzed disaccharides thereof, each compound was dissolved in 0.1N acetic acid, and 25 μl of the compound solution was substituted for the 25 μl of 0.1N acetic acid in the reaction system described above. Further, in determining the inhibitory activity against the chitinases of baker's yeast and Trichoderma sp., the assay was performed by changing the buffer in the reaction system described above from 50 mM bis-Tris buffer (pH 6.5) to 0.1M citrate buffer (pH 3.0) and MclLvanine buffer (pH 5.2), respectively.

Experiment [4] has as its target T1, chitinase from baker's yeast (S cerevisiae) (Saccharomyces cerevisiae, UniProt P29029).
T1 construct: was shaken at 30° C. for 2 hours at 120 spm to extract the enzyme; host or cells: commercial baker's yeast, digitonin extract
T1 sequence (P29029 21-562): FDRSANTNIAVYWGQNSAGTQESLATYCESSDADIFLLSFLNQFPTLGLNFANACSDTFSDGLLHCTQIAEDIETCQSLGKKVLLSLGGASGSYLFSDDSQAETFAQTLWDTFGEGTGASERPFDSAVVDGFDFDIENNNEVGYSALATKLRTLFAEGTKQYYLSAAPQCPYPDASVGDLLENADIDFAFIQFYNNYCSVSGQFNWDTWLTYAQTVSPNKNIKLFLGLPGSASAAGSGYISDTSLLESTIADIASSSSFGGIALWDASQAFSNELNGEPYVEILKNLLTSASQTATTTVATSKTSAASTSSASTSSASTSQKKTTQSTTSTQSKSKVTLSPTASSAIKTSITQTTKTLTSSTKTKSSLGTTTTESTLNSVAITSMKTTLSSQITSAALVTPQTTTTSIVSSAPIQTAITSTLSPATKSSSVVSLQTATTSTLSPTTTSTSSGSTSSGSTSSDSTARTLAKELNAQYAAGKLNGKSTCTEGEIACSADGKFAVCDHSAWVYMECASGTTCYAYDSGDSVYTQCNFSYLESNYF
Briefly: Assay for chitinase inhibitory activity, chitinase from baker's yeast. The experiment is classed as biochemical. Conditions: 0.1M citrate buffer pH 3.0, substrate 4MBTC. The method, then: The chitinase from baker's yeast (S cerevisiae) was prepared by the following method. Firstly, 400 g of baker's yeast (manufactured by Kanegafuchi Chemical Industry Co., Ltd.) was suspended in buffer for enzyme extraction (0.1% digitonin: manufactured by Wako Pure Chemical Industry Co., Ltd.), 0.1% β-mercaptoethanol and 2 liters of 25 mM MES (manufactured by Nakarai Chemical Co., Ltd.), and was shaken at 30° C. for 2 hours at 120 spm to extract the enzyme. The extract was centrifuged at 12,000 g for 10 minutes and the supernatant was recovered. The supernatant was concentrated to about one-fifth of the volume by ultrafiltration (UP-20). After 800 ml of sodium citrate buffer (obtained by adding 0.15M aqueous sodium citrate to 0.15M aqueous citric acid, and adjusting the pH to 3.0) was added to the concentrate, the precipitates were removed by centrifugation (0° C., 12,000 g, 10 minutes). The supernatant was again concentrated by ultrafiltration (UP-20) to about 80 ml. The resulting concentrate was used as the chitinase from baker's yeast in the assay described in procedure (ii) below.
as §1, §2

The target of experiment [5] is chitinase from Trichoderma sp. (Chitinase T-1). Briefly: Assay for chitinase inhibitory activity, chitinase from Trichoderma sp. Format: biochemical. To be noted: McIlvaine buffer pH 5.2, substrate 4MBTC. Here is the method: The chitinase from Trichoderma sp. was provided for use in the assay described in procedure (ii) below by diluting commercially available Chitinase T-1 (manufactured by Asahi Industry Co., Ltd.) with MclIvanine buffer (obtained by adding 0.2M aqueous disodium hydrogen phosphate to 0.1M aqueous citric acid and adjusting the pH to 5.2) to a concentration of 50 μg/ml.
as §1, §2

Experiment [6] deals with silkworm-derived chitinase. Conditions: background statement; cited from earlier work.
Experiment [7] deals with endo-type chitinase of insects. Conditions: background statement; cited from earlier work.
A further experiment deals with fungi-derived chitinase. To be noted: background statement; cited from earlier work.

Molecules are shown by their SMILES.

Turning to `CNC1=N[C@@H]2[C@@H](O)[C@H](O[C@@H]3O[C@H](CO)[C@@H](O[C@@H]4O[C@H](CO)[C@@H](O)[C@@H](O)[C@H]4NC(C)=O)[C@@H](O)[C@H]3NC(C)=O)[C@@H](CO)[C@@H]2O1` [Demethylallosamidin, demethylallosamidin], the “Inhibitory activity against chitinase from baker's yeast” value in experiment [1] is “potent inhibitory activity”. Further, the “Inhibitory activity against chitinase of Candida albicans” value in experiment [2] is recorded as “insufficient”.
For the molecule `COC[C@H]1O[C@@H](O[C@H]2[C@@H](O)[C@@H](NC(C)=O)[C@H](OC3C(O)C4N=C(N(C)C)OC4C3CO)O[C@@H]2CO)[C@H](NC(C)=O)[C@H](O)[C@@H]1O` (some centres unmarked) [Methylallosamidin, methylallosamidin, reference compound], the “Chitinase Inhibitory Activity IC50, C. albicans” value in experiment [3] worked out at 8.8 µg/mL. Moreover, the IC50 – broadly, the concentration that gives 50% inhibition – in experiment [4] was 58.4 µM. In experiment [5], the “Chitinase Inhibitory Activity IC50, Trichoderma sp.” value worked out at 1.2 µg/mL. In experiment [6], the “Inhibition of silkworm-derived chitinase” value is reported as “inhibitors”. The “Inhibition of endo-type chitinase of insects” value in experiment [7] was “strongly inhibit”. Besides, the “Inhibitory activity against fungi-derived chitinase” value in the experiment with fungi-derived chitinase is “weak inhibitory activity”.
